Six compounds from patent publication US20060128727A1, “Fungicidal mixtures based on a triazolopyrimidine derivative” (priority 2003, published 2006) can be followed below.

This assay concerns Plasmopara viticola. Description: Activity against peronospora of grapevines caused by Plasmopara viticola (protective spray test on potted vines). The assay is classed as in vivo. Particulars: individual active compound, vines cultivar Riesling. The protocol:
The active compounds, separately or jointly, were prepared as a stock solution comprising 0.25% by weight of active compound in acetone or DMSO. 1% by weight of the emulsifier Uniperol® EL (wetting agent having emulsifying and dispersant action based on ethoxylated alkylphenols) was added to this solution, and the mixture was diluted with water to the desired concentration. USE EXAMPLE
Leaves of potted vines of the cultivar “Riesling” were sprayed to runoff point with an aqueous suspension having the concentration of active compound stated below. The next day, the undersides of the leaves were inoculated with an aqueous zoospore suspension of Plasmopara viticola. The grapevines were then initially placed in a water-vapor-saturated chamber at 24° C. for 48 hours and then in a greenhouse at 20-30° C. for 5 days. After this period of time, the plants were again placed in a humid chamber for 16 hours to promote sporangiophore eruption. The extent of the development of the disease on the undersides of the leaves was then determined visually.
The visually determined percentages of infected leaf areas were converted into efficacies in % of the untreated control:
The efficacy (E) is calculated as follows using Abbot's formula: E=(1−α/β)·100 • α corresponds to the fungicidal infection of the treated plants in % and • β corresponds to the fungicidal infection of the untreated (control) plants in %
An efficacy of 0 means that the infection level of the treated plants corresponds to that of the untreated control plants; an efficacy of 100 means that the treated plants were not infected.
The expected efficacies of mixtures of active compounds were determined using Colby's formula (Colby, S. R. “Calculating synergistic and antagonistic responses of herbicide combinations”, Weeds, 15, 20-22, 1967) and compared with the observed efficacies.
Colby's Formula: E=x+y−x·y/100 • E expected efficacy, expressed in % of the untreated control, when using the mixture of the active compounds A and B at the concentrations a and b • x efficacy, expressed in % of the untreated control, when using the active compound A at the concentration a • y efficacy, expressed in % of the untreated control, when using the active compound B at the concentration b

Take `CC#Cc1cc(C)nc(Nc2ccccc2)n1` [II-3, (4-methyl-6-prop-1-ynylpyrimidin-2-yl)phenylamine]: the “Efficacy in % of the untreated control” value was 0% (1 ppm in the spray liquor), 0% (4 ppm in the spray liquor) and 0% (63 ppm in the spray liquor).
`Cc1cc(C2CC2)nc(Nc2ccccc2)n1` [II-2, (4-cyclopropyl-6-methylpyrimidin-2-yl)phenylamine]: the “Efficacy in % of the untreated control” value came to 0% (1 ppm in the spray liquor), 0% (4 ppm in the spray liquor) and 0% (63 ppm in the spray liquor).
On to `Cc1cc(C)nc(Nc2ccccc2)n1` [II-1, (4,6-dimethylpyrimidin-2-yl)phenylamine], for which the “Efficacy in % of the untreated control” value is listed as 0% (1 ppm in the spray liquor), 0% (4 ppm in the spray liquor) and 0% (63 ppm in the spray liquor).
For `CC1CCN(c2c(-c3c(F)cccc3Cl)c(Cl)nc3ncnn23)CC1` [Comparison A], for the setting “4 ppm in the spray liquor”, the “Efficacy in % of the untreated control” value is recorded as 0%.
Regarding `CC1CCN(c2c(-c3c(F)cc(F)cc3F)c(Cl)nc3ncnn23)CC1` [I, 5-chloro-7-(4-methylpiperidin-1-yl)-6-(2,4,6-trifluorophenyl)-[1,2,4]triazolo[1,5-a]pyrimidine], where the note is “4 ppm in the spray liquor”, the “Efficacy in % of the untreated control” value is recorded as 56%.
Regarding `C[C@H](Nc1c(-c2c(F)cc(F)cc2F)c(Cl)nc2ncnn12)C(F)(F)F` [Comparison B], for the setting “4 ppm in the spray liquor”, the “Efficacy in % of the untreated control” value came to 11%.
